Experiments:
[1] = system: Panc 05.04 (pancreas cancer); assay: Chou and Talalay combination assay with beta-caryophyllene; type: cell-based, Human; conditions: in combination with beta-caryophyllene in ethanol (40-150 mM), 48 h
Protocol: Agent: […] Each solution was prepared fresh and use within 1 hour after preparation. 5 μL of each test article were added to 1 mL of culture medium for a final concentration of 0.5% of solvent and this concentration have no toxic effect on cells. Cells: The Panc 05.04 cell line was used. Cells were harvested using trypsine-EDTA. […] Cells were plated in 96-well microplates (BD Falcon) at a density of 7.5×10^3 cells per well for Chou and Talalay assay in 100 μL of culture medium and were allowed to adhere for 24 hours before treatment. Proliferation assay: Increasing concentrations of the anticancer agents and/or beta-caryophyllene were added to 96-well plate (100 μL per well). The final concentration of solvent in the culture medium was maintained below 0.5% (volume/volume) to avoid solvent toxicity. […] The cells were incubated for 48 h at 37° C. and 5% CO2. Cytotoxicity was assessed using the resazurin reduction test (8). […] Resazurin was then removed. Data analysis: Results were analyzed using the Chou and Talalay method (9) and may be interpreted as follow: […]

tumor cell lines = assay: Comparative potentiating effect of beta-caryophyllene and Tesmilifene (DPPE) combined with 5 antitumor classes; type: cell-based
Protocol: Each solution was prepared fresh and use within 1 hour after preparation.
Cells were then harvested using trypsine-EDTA. Cells were counted using a hemocytometer and resuspended in DMEM+10% FBS medium.
Proliferation assay: Increasing concentrations of the anticancer agents and/or beta-caryophyllene were added to 96-well plate (100 μL per well). The final concentration of solvent in the culture medium was maintained below 0.5% (volume/volume) to avoid solvent toxicity.
The cells were incubated for 48 h at 37° C. and 5% CO2. Cytotoxicity was assessed using the resazurin reduction test (O'Brien et al., 2000). Fluorescence was measured on an automated 96-well Fluoroskan Ascent FI™ plate reader (Labsystems) using excitation and emission wavelengths of 530 nm and 590 nm, respectively. Resazurin was then removed.
Microplates were frozen at −20° C. overnight. Plates were thawed, a volume of 100 μl of 0.01% SDS in water was added to the wells, the plates were shaken at room temperature for 3 hours and then frozen once more at −20° C. overnight. […] Plates were shaken in the dark (at room temperature) for at least 2 hours, and fluorescence was measured on an automated 96-well Fluoroskan Ascent FI™ plate reader (Labsystems) using excitation and emission wavelengths of 360 nm and 460 nm, respectively.
Results were analyzed using the Chou and Talalay method (9) and may be interpreted as follow: Cl>1 represents an antagonist effect of beta-caryophyllene with the corresponding anticancer agent; Cl=1 represents an additive effect of beta-caryophyllene with the corresponding anticancer agent; Cl<1 represents a potentiating effect of beta-caryophyllene with the corresponding anticancer agent.

[2] = system: B16-F1 mouse skin melanoma
Protocol: Formulations: Two formulations were used for this study. The first one was prepared for groups treated with paclitaxel alone while the other one was prepared for the paclitaxel/caryophyllene combination (Table 5). […] These solutions were further diluted with 19 mL of a solution containing soya lecithin (2.85 mL), glycerol (0.95 mL) and polysorbate 80 (380 μL) in water (14.82 mL). Each solution was prepared fresh and used within 30 minutes after preparation (see Table 5 below for presenting formulations).
Mice: All the experiments were carried out using B6D2F1 male mice, 6-weeks old (Charles Rivers Inc., St-Constant, QC). They were handled and cared for in accordance with the Guide for the Care and Use of Laboratory Animals.
Cells (passages #7 to 21) were grown to 90% confluence in complete MEM medium containing Earle's salts and L-glutamine (Mediatech Cellgro, Va.), 10% fetal bovine serum (Hyclone), vitamins (1×), penicillin (100 I.U./mL) and streptomycin (100 μg/mL), essential amino acids (1×) and sodium pyruvate (1×) (Mediatech Cellgro, Va.). Cells were then harvested using 0.5% trypsin-EDTA (Mediatech Cellgro, Va.). Cells were counted using a hemacytometer and resuspended in MEM medium without SVF. 100 μL of a solution containing […] per well were inoculated subcutaneously in each mice.
Administration: To establish animal tumor models, 2.5×10^6 cells were resuspended in 100 μL of MEM medium without SVF (Mediatech Cellgro, Va.) and injected into the subcutaneous tissue of the right flank of the mice on day zero. […] Treatments by intravenous injections (tail vein) were performed on days 7, 10, 13.
Data analysis: Antitumor activity was evaluated according to two parameters as follows:
CTW values were averaged within each group during and after drug treatment over a period of 17 days post-tumor implant. […] Values of p<0.05 were considered statistically significant.

MCF-7 = assay: Cytotoxicity of alpha-humulene and isocaryophyllene alone or combined with beta-caryophyllene; type: cell-based, human; conditions: beta-caryophyllene 2.5 to 40 μg/ml
Protocol: Combinations of beta-caryophyllene and two other antitumor agents, isocaryophyllene and α-humulene, were also tested as described above with some adaptations. 5×10^3 cells per well were allowed to adhere for 16 hours before treatment. The final concentration of solvent in the culture medium was maintained at 0.5% (volume/volume) to avoid toxicity. These combinations were tested on MCF-7.

[3] = paclitaxel 2 mg/kg, beta-caryophyllene 1%, i.v. days 7, 10, 13

`CC[C@@]1(O)C(=O)OCc2c1cc1n(c2=O)Cc2cc3ccccc3nc2-1` [Camptothecin, camptothecin] was tested, and the “Potentiating activity Panc 05.04” value [1] was “Potentiating > IC60”.

For `CCc1c2c(nc3ccc(OC(=O)N4CCC(N5CCCCC5)CC4)cc13)-c1cc3c(c(=O)n1C2)COC(=O)[C@]3(O)CC` [Irinotecan], the “Potentiating activity Panc 05.04” value [1] was “Potentiating > IC50”.

In the case of `C=C1CC/C=C(\C)CC[C@@H]2[C@@H]1CC2(C)C` [beta-caryophyllene, (1R,4E,9S)-4-11,11-trimethyl-8-methylenebicyclo[7.2.0]undec-4-ene], the Alkylating agents % (tumor cell lines; class (1) Very High) is reported as 50%, the “Alkylating agents Total (60)” value (tumor cell lines; class (1) Very High) is reported as 30 and the Antimitotic agents % (tumor cell lines; class (1) Very High) is reported as 60%. For the same compound, the “Antimitotic agents Total (40)” value (tumor cell lines; class (1) Very High) was 24, the RNA/DNA antimetabolites % (tumor cell lines; class (1) Very High) was 30% and the “RNA/DNA antimetabolites Total (20)” value (tumor cell lines; class (1) Very High) was 6. The “Topoisomerase II inhibitors %” value (tumor cell lines; class (1) Very High) was 33%, the “Topoisomerase II inhibitors Total (40)” value (tumor cell lines; class (1) Very High) was 13 and the kinase inhibitors % (tumor cell lines; class (1) Very High) was 35%. The “kinase inhibitors Total (20)” value (tumor cell lines; class (1) Very High) was 7, the Alkylating agents % (tumor cell lines; class (2) High) was 15% and the “Alkylating agents Total (60)” value (tumor cell lines; class (2) High) was 9. For the same compound, the Antimitotic agents % (tumor cell lines; class (2) High) was 15%, the “Antimitotic agents Total (40)” value (tumor cell lines; class (2) High) was 6 and the RNA/DNA antimetabolites % (tumor cell lines; class (2) High) was 20%. For the same compound, the “RNA/DNA antimetabolites Total (20)” value (tumor cell lines; class (2) High) was 4, the “Topoisomerase II inhibitors %” value (tumor cell lines; class (2) High) was 18% and the “Topoisomerase II inhibitors Total (40)” value (tumor cell lines; class (2) High) was 7. For the same compound, the kinase inhibitors % (tumor cell lines; class (2) High) was 30%, the “kinase inhibitors Total (20)” value (tumor cell lines; class (2) High) was 6 and the Alkylating agents % (tumor cell lines; class (3) Moderate) was 23%. For the same compound, the “Alkylating agents Total (60)” value (tumor cell lines; class (3) Moderate) was 14, the Antimitotic agents % (tumor cell lines; class (3) Moderate) was 23% and the “Antimitotic agents Total (40)” value (tumor cell lines; class (3) Moderate) was 9. For the same compound, the RNA/DNA antimetabolites % (tumor cell lines; class (3) Moderate) was 15%, the “RNA/DNA antimetabolites Total (20)” value (tumor cell lines; class (3) Moderate) was 3 and the “Topoisomerase II inhibitors %” value (tumor cell lines; class (3) Moderate) was 28%. For the same compound, the “Topoisomerase II inhibitors Total (40)” value (tumor cell lines; class (3) Moderate) was 11, the kinase inhibitors % (tumor cell lines; class (3) Moderate) was 20% and the “kinase inhibitors Total (20)” value (tumor cell lines; class (3) Moderate) was 4. For the same compound, the Alkylating agents % (tumor cell lines; class (4) Weak) was 4%, the “Alkylating agents Total (60)” value (tumor cell lines; class (4) Weak) was 2 and the Antimitotic agents % (tumor cell lines; class (4) Weak) was 3%. For the same compound, the “Antimitotic agents Total (40)” value (tumor cell lines; class (4) Weak) was 1, the RNA/DNA antimetabolites % (tumor cell lines; class (4) Weak) was 10% and the “RNA/DNA antimetabolites Total (20)” value (tumor cell lines; class (4) Weak) was 2. For the same compound, the “Topoisomerase II inhibitors %” value (tumor cell lines; class (4) Weak) was 10%, the “Topoisomerase II inhibitors Total (40)” value (tumor cell lines; class (4) Weak) was 4 and the kinase inhibitors % (tumor cell lines; class (4) Weak) was 5%. The “kinase inhibitors Total (20)” value (tumor cell lines; class (4) Weak) was 1, the Alkylating agents % (tumor cell lines; class (5) Additive effect) was 0% and the “Alkylating agents Total (60)” value (tumor cell lines; class (5) Additive effect) was 0. The Antimitotic agents % (tumor cell lines; class (5) Additive effect) was 0%, the “Antimitotic agents Total (40)” value (tumor cell lines; class (5) Additive effect) was 0 and the RNA/DNA antimetabolites % (tumor cell lines; class (5) Additive effect) was 0%. For the same compound, the “RNA/DNA antimetabolites Total (20)” value (tumor cell lines; class (5) Additive effect) was 0, the “Topoisomerase II inhibitors %” value (tumor cell lines; class (5) Additive effect) was 8% and the “Topoisomerase II inhibitors Total (40)” value (tumor cell lines; class (5) Additive effect) was 3. The kinase inhibitors % (tumor cell lines; class (5) Additive effect) was 5%, the “kinase inhibitors Total (20)” value (tumor cell lines; class (5) Additive effect) was 1 and the Alkylating agents % (tumor cell lines; class (6) Antagonist effect) was 7%. For the same compound, the “Alkylating agents Total (60)” value (tumor cell lines; class (6) Antagonist effect) was 4, the Antimitotic agents % (tumor cell lines; class (6) Antagonist effect) was 0% and the “Antimitotic agents Total (40)” value (tumor cell lines; class (6) Antagonist effect) was 0. The RNA/DNA antimetabolites % (tumor cell lines; class (6) Antagonist effect) was 25%, the “RNA/DNA antimetabolites Total (20)” value (tumor cell lines; class (6) Antagonist effect) was 5 and the “Topoisomerase II inhibitors %” value (tumor cell lines; class (6) Antagonist effect) was 5%. The “Topoisomerase II inhibitors Total (40)” value (tumor cell lines; class (6) Antagonist effect) was 2, the kinase inhibitors % (tumor cell lines; class (6) Antagonist effect) was 5% and the “kinase inhibitors Total (20)” value (tumor cell lines; class (6) Antagonist effect) was 1. For the same compound, the “drugs exhibiting a potentiating effect when combined” value (tumor cell lines; drugs tested at their IC50 values) was 91%, the “effect on tumor growth (in words)” value ([2]; B16 melanoma-bearing mice, i.v. days 7, 10, 13) was “do not significantly inhibit tumor growth” and the “Observations: animals surviving on day 17” value ([2]; male, B6D2F1, mouse, in vivo, 17 day) was 08/08 animals. For the same compound, the “Treated/Control (%) on day 13” value [2, 3] was 95%, the “Treated/Control (%) on day 14” value [2, 3] was 100% and the “Treated/Control (%) on day 15” value [2, 3] was 89%. The “Treated/Control (%) on day 16” value [2, 3] was 91%, the “Treated/Control (%) on day 17” value [2, 3] was 111% and the “effect on anticancer activity of alpha-humulene and isocaryophyllene” value (MCF-7) was “increases significantly anticancer activity”.
